For data set [1], the target named is T1, Caspase-1 (Homo sapiens, UniProt P29466).
T1 sequence (P29466 120-297 limits assumed): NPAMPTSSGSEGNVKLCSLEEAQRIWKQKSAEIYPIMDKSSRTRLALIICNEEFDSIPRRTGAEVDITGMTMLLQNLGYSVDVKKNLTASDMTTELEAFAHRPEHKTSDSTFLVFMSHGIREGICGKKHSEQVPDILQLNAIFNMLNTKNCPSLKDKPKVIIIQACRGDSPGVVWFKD
T1 sequence (P29466 317-404 limits assumed): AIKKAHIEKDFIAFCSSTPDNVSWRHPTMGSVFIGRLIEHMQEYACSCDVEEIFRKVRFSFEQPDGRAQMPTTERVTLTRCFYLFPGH
The data set can be described thus: Caspase-1 enzyme inhibition (Ki). Type of data set: biochemical. As to conditions: substrate Suc-YVAD-pNA 80 μM, 37° C., pH 7.5. The method, boiled down:
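Ki obtained by fitting rate versus inhibitor concentration to the Morrison tight-binding equation for competitive inhibitors, with pNA release read at 405 nm at 37 °C. Substrate Suc-YVAD-pNA (80 μM final) added after 15 min enzyme–inhibitor preincubation in Tris pH 7.5 buffer with DTT and CHAPS.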

Data set [2] concerns Human whole blood, IL-1β production. Nature of the data set: Whole blood assay for IL-1β production. The conditions noted are these: LPS-stimulated whole blood, IL-1β by ELISA. In kind it is cell-based. The method, boiled down: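 LPS-stimulated (5.0 ng/ml final) human whole blood incubated with test compound in saline (or plasma/PBS-5% DMSO for hydrophobic compounds) at 30° C for 16-18 hr. Plasma IL-1β then measured by ELISA at 1:200 dilution, against no-LPS, no-inhibitor and vehicle controls.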

Data set [3] is described as follows: Single pass perfusion in rat: GI wall and liver metabolism, biliary excretion. In kind it is in vitro ADME. The conditions noted are these: for f (g) Xf (h): GI wall metabolism f(g) x liver metabolism f(h). As to the method:
Single pass perfusion studies in rat were performed to assess gastrointestinal (GI) wall metabolism (f(g)), liver metabolism (f(h)), and biliary excretion. The method used has been described in Pang, C. S., J. Pharmacol. Exp. Therapeutics, 333, pp. 788-798 (1984).

Data set [4] concerns the target T2, Caspase-3 (Homo sapiens, UniProt P42574).
T2 sequence (P42574 29-175 limits assumed): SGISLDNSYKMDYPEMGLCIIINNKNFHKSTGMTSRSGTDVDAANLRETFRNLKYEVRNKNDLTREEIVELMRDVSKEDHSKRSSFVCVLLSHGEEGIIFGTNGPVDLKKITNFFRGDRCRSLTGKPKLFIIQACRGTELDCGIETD
T2 sequence (P42574 176-277 limits assumed): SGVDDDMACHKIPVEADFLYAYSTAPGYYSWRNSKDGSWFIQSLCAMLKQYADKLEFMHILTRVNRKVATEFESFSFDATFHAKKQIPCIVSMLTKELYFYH
Nature of the data set: Caspase-3 enzyme inhibition (Ki). The conditions noted are these: substrate Ac-DEVD-pNA 60 μM, 8% glycerol in buffer, 37° C. Type of data set: biochemical. The procedure:
Ki values for test compounds with the various caspases were obtained by the method of Margolin et al. (J. Biol. Chem., 272 pp. 7223-7228 (1997)). Assays were performed in 10 mM Tris (Sigma Corp, St Louis Mo.) pH 7.5, 1 mM Dithiothreitol (DTT, Research Organic INC, Cleveland, Ohio) and 0.1% CHAPS (Pierce, Rockford Ill.) at 37° C. For caspase-3, a solution of 8% glycerol was added to the assay buffer to improve enzyme stability. A 65 μL aliquot of the assay buffer and 5 μL aliquot of the appropriate dilutions of inhibitor in DMSO where pipetted into a 96 well plate, treated with 10 μL of caspase, then diluted in assay buffer (0.5-40 nM active protein by active site titration). A control containing DMSO but no compound was included for each determination. The plates were then incubated for 15 minutes at 37° C., before addition of the appropriate substrate (20 μL, final concentration 1-4×KM, final assay volume 100 μL) to initiate the reaction. Reaction rates were measured at 37° C. either by following the time dependant increase in absorbance at 405 nm (for the pNA substrates) or in fluorescence (Ex 390, Em 460) (for the AMC substrates). The rates obtained were plotted against inhibitor concentration and the data fit to the Morrison tight-binding equation for competitive inhibitors (Morrison, J. F., Biochem. Biophys. Acta, 185 pp. 269-286 (1969)). The substrates used for the individual assays were as follows:
Caspase-3 Ac-DEVD-pNA (Bachem, King of Prussia, Pa.) (final concentration in assay, 60 μM)

In data set [5] the test system is Human Peripheral Blood Mononuclear Cells (PBMC), mature IL-1β. The data set can be described thus: PBMC cell assay: IL-1β assay with human peripheral blood mononuclear cells. In kind it is cell-based. The conditions noted are these: LPS-stimulated human PBMC, mature IL-1β in supernatant by ELISA. The method, boiled down:
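Donor PBMC (suspension at 6×10^6 cells/ml) or adherent-enriched monocytes were stimulated with 5 ng/ml LPS (final) alongside 5–6 compound dilutions bracketing the ICE Ki, at 0.1% DMSO final, for 16–18 hr at 37° C, 5% CO2. Mature IL-1β in supernatants was measured by ELISA; IC50 was calculated relative to LPS-only controls.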
In general terms: In an ELISA, binding on a coated surface is turned into a signal by an enzyme label.

The Ki is the dissociation constant of the complex between target and ligand, obtained from inhibition or displacement. A high value points to a looser hold on the target. In general, IC50 refers to the point on the concentration scale where inhibition reaches its midpoint. Low values mean greater potency, high ones weaker potency.

As to `COc1cc(N)c(Cl)cc1C(=O)N[C@@H](C)C(=O)N1CCC[C@H]1C(=O)N[C@H](C=O)CC(=O)O` [Example 7ac], in data set [1], the Ki was 10 to 1000 nM. The IC50 in data set [2] was 2500 to 7500 nM. In data set [3], the “Biliary Excretion” value is “C (Category “C” indicates >10%)” and the “f (g) Xf (h)” value was “C (Category “C” indicates 0.5-0.75)”.

For `C[C@H](NC(=O)c1ccc(N)c(Cl)c1)C(=O)N1CCCC[C@H]1C(=O)N[C@H](C=O)CC(=O)O` [Example 25d], the Ki in data set [1] is < 10 nM. In data set [2], the IC50 was < 2500 nM. In addition, in data set [3], the “Biliary Excretion” value is “C (Category “C” indicates >10%)” and the “f (g) Xf (h)” value is recorded as “C (Category “C” indicates 0.5-0.75)”.

`CC(=O)Nc1ccc(C(=O)N[C@@H](C)C(=O)N2CCCC[C@H]2C(=O)N[C@H](C=O)CC(=O)O)cc1Cl` [Example 25e]: in data set [1], the Ki is < 10 nM. The concentration for half-maximal inhibition (IC50) in data set [2] is > 7500 nM. In data set [3], the “Biliary Excretion” value was “B (Category “B” indicates 5-10%)” and the “f (g) Xf (h)” value is listed as “C (Category “C” indicates 0.5-0.75)”.

`COc1cc(N)c(Cl)cc1C(=O)N[C@@H](C)C(=O)N1CC(F)(F)C[C@H]1C(=O)N[C@H](C=O)CC(=O)O` [Example 27b] had a Ki in data set [1] of 10 to 1000 nM. Also, the IC50 in data set [2] was < 2500 nM. Moreover, in data set [3], the “Biliary Excretion” value is “A (category “A” indicates <5%)” and the “f (g) Xf (h)” value is reported as “B (Category “B” indicates 0.25-0.49)”.

With `CC(C)[C@H](NC(=O)c1nccc2ccccc12)C(=O)N[C@@H](C)C(=O)N[C@H](C=O)CC(=O)O` [Example 29b], the Ki in data set [1] is < 10 nM. Moreover, the Ki in data set [4] was > 1000 nM. For the same compound, the IC50 in data set [5] fell in the range of 1000 to 2000 nM. In addition, in data set [3], the “Biliary Excretion” value is “B (Category “B” indicates 5-10%)” and the “f (g) Xf (h)” value is given as “A (category “A” indicates <0.25)”.

In turn, `COc1ccc(C(=O)N[C@H](C(=O)N[C@@H](C)C(=O)N[C@H](C=O)CC(=O)O)C(C)C)cc1` [Example 29n] gave a Ki in data set [1] of 10 to 1000 nM. The compound also yielded an IC50 in data set [2] of 2500 to 7500 nM. For the same compound, in data set [3], the “Biliary Excretion” value is reported as “A (category “A” indicates <5%)” and the “f (g) Xf (h)” value is recorded as “C (Category “C” indicates 0.5-0.75)”.

Turning to `COc1c(C)cc(C(=O)N[C@@H](C)C(=O)N[C@@H](C)C(=O)N[C@H](C=O)CC(=O)O)cc1C` [Example 29o], in data set [1], the Ki was in the range of 10 to 1000 nM. In data set [2], the IC50 was < 2500 nM. In data set [3], the “Biliary Excretion” value is “A (category “A” indicates <5%)” and the “f (g) Xf (h)” value was “C (Category “C” indicates 0.5-0.75)”.

Take `COc1c(C)cc(C(=O)N[C@H](C(=O)N[C@@H](C)C(=O)N[C@H](C=O)CC(=O)O)C(C)C)cc1C` [Example 29p]: the Ki in data set [1] was < 10 nM. The IC50 in data set [2] is < 2500 nM. Further, in data set [3], the “Biliary Excretion” value is on record as “C (Category “C” indicates >10%)” and the “f (g) Xf (h)” value is “B (Category “B” indicates 0.25-0.49)”.

`C[C@H](NC(=O)c1ccc(N)c(Cl)c1)C(=O)N[C@@H](C)C(=O)N[C@H](C=O)CC(=O)O` [Example 29q]: the Ki in data set [1] was < 10 nM. In data set [2], the IC50 is < 2500 nM. In addition, in data set [3], the “Biliary Excretion” value is reported as “A (category “A” indicates <5%)” and the “f (g) Xf (h)” value is reported as “C (Category “C” indicates 0.5-0.75)”.

For the compound `CC(C)[C@H](NC(=O)c1ccc(N)c(Cl)c1)C(=O)N[C@@H](C)C(=O)N[C@H](C=O)CC(=O)O` [Example 29r], the Ki in data set [1] was < 10 nM. Moreover, in data set [2], the IC50 was < 2500 nM. For the same compound, in data set [3], the “Biliary Excretion” value is listed as “B (Category “B” indicates 5-10%)” and the “f (g) Xf (h)” value is listed as “C (Category “C” indicates 0.5-0.75)”.

On to `CC(=O)NC(CC(=O)O)C(=O)NC1CCN(C(CC(C)C)C(=O)NC(C=O)CC(=O)O)C1=O` (centres unmarked) [Example 32d], for which the Ki in data set [1] is > 1000 nM; in data set [4], 10 to 1000 nM.

In turn, `C[C@H](NC(=O)c1cnc2ccccc2n1)C(=O)N1CCC[C@H]1C(=O)N[C@H](C=O)CC(=O)O` [Example 122j, 4-Oxo-3-[(1-{2-[(quinoxaline-2-carbonyl)-amino]-propionyl}-pyrrolidine-2-carbonyl) -amino]-butyric acid] registered a Ki in data set [1] of 10 to 1000 nM. For the same compound, the figures for the IC50 in data set [5] and in data set [2] were > 2000 nM and 2500 to 7500 nM, respectively.

Compound `C[C@H](NC(=O)c1ccc(N)c(C(F)(F)F)c1)C(=O)N1CCC[C@H]1C(=O)N[C@H](C=O)CC(=O)O` [Example 122l, 3-({1-[2-(4-Amino-3-trifluoromethyl-benzoylamino)-propionyl]-pyrrolidine-2-carbonyl}-amino)-4-oxo-butyric acid] gave a Ki in data set [1] of 10 to 1000 nM. The values for the IC50 in data set [5] and in data set [2] were 500 to 1000 nM and < 2500 nM, respectively.

Turning to `COc1cc(NC(C)=O)c(Cl)cc1C(=O)N[C@@H](C)C(=O)N1CCC[C@H]1C(=O)N[C@H](C=O)CC(=O)O` [Example 122r, 3-({1-[2-(4-Acetylamino-5-chloro-2-methoxy-benzoylamino)-propionyl]-pyrrolidine-2-carbonyl}-amino)-4-oxo-butyric acid], the Ki in data set [1] fell in the range of 10 to 1000 nM. The compound further returned an IC50 in data set [2] of 2500 to 7500 nM. In data set [3], the “Biliary Excretion” value is “A (category “A” indicates <5%)” and the “f (g) Xf (h)” value is “B (Category “B” indicates 0.25-0.49)”.

For the origin of these results see patent US20030232986A1, “Inhibitors of caspases” (Vertex Pharmaceuticals Incorporated, priority 1998, published 2003).
